Test results from patent publication US10227344B2, “CK2 inhibitors, compositions and methods thereof” (Polaris Pharmaceuticals, Inc., priority 2016, dated 2019).
Counter-ions that a name gives are not always drawn.

Molecular target: purified CK2α enzyme (Homo sapiens, UniProt P68400)
Test: CK2 Protein Kinase Inhibition Assay (coupled PK/LDH assay)
Format: biochemical
Conditions: CK2 enzyme 25 nM, 100 μM ATP, 37° C., Morrison equation
Description: A coupled PK (pyruvate kinase)/LDH (lactate dehydrogenase) assay was used to measure compounds' ability to inhibit purified CK2α enzyme.
The ADP product of kinase CK2a is the cofactor for PK. Phospho(enol)pyruvate (PEP) PEP is metabolized by pyruvate kinase to yield pyruvate, which is the substrate for LDH.
Serially diluted compounds were pre-incubated for 10 min at 37° C. with and 1.5 mM […] peptide substrate, 6 U/ml PK and 10 U/ml LDH (purchased from Sigma-Aldrich), 100 μM ATP, 1.2 mM NADH, 4 mM PEP in the reaction buffer (50 mM Tris (pH 8.25), 0.1 M NaCl, 10 mM magnesium acetate). The reaction was initiated by the addition of an equal volume of purified CK2 enzyme (final concentration 25 nM) diluted in the reaction buffer. Absorbance at 340 nm was measured overtime (for 30 min) at 37° C.; as NADH was converted to NAD+ the absorbance decreases. Absorbance decrease rate (per min) was plotted against the compound concentration and Ki is determined by GraphPad Prism using Morrison equation. All data points were performed in triplicate and each compound was tested in at least two separate experiments.
To this end, K, values of less than 2.5 nM are labelled as “+++”, from 2.5 nM to 10 nM are labelled as “++”, and greater than 10 nM are labelled as “+”.

Chain of purified CK2α enzyme (P68400 whole entry): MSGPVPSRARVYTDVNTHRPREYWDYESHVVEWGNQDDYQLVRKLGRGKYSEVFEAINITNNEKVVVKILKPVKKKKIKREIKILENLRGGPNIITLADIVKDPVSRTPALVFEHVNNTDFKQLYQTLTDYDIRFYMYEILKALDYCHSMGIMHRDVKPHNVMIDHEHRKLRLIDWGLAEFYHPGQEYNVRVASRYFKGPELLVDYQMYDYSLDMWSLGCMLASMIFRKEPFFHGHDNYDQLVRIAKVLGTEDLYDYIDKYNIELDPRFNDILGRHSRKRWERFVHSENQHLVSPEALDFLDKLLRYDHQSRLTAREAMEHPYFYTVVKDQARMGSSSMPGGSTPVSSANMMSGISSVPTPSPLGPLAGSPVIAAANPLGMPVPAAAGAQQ

Row | SMILES | Ki
1 | C[S+]([O-])Cc1cc(Nc2cc(Nc3ccc(N)nc3)n3ncc(C#N)c3n2)ccc1C1CC1 (racemic) [Example 56, (±)-7-((6-Aminopyridin-3-yl)amino)-5-((4-cyclopropyl-3-((methylsulfinyl)methyl)phenyl)amino)pyrazolo[1,5-a]pyrimidine-3-carbonitrile] | < 2.5 nM
2 | CN(CC1(N)CC1)c1ccc(Nc2cc(NC3CC3)n3ncc(C#N)c3n2)cc1C[S+](C)[O-] (racemic) [Example 65, (±)-5-((4-(((1-Aminocyclopropyl)methyl)(methyl)amino)-3-((methylsulfinyl)methyl)phenyl)amino)-7-(cyclopropylamino)pyrazolo[1,5-a]pyrimidine-3-carbonitrile mono trifluoroacetic acid salt] | < 2.5 nM
3 | CN(CCN)c1ccc(Nc2nc(NC3CC3)n3ncc(C#N)c3n2)cc1C[S+](C)[O-] (racemic) [Example 51, (±)-2-((4-((2-aminoethyl)(methyl)amino)-3-((methylsulfinyl)methyl)phenyl)amino)-4-(cyclopropylamino)pyrazolo[1,5-a][1,3,5]triazine-8-carbonitrile mono trifluoroacetic acid salt] | < 2.5 nM
4 | C[S+]([O-])Cc1cc(Nc2cc(Nc3ccc(N)cn3)n3ncc(C#N)c3n2)ccc1C1CC1 (racemic) [Example 57, (±)-7-((5-Aminopyridin-2-yl)amino)-5-((4-cyclopropyl-3-((methylsulfinyl)methyl)phenyl)amino)pyrazolo[1,5-a]pyrimidine-3-carbonitrile] | < 2.5 nM
5 | CN(CC1(N)CC1)c1ccc(Nc2cc(NC3CC3)n3ncc(C#N)c3n2)cc1CS(C)(=O)=O [Example 66, 5-((4-(((1-aminocyclopropyl)methyl)(methyl)amino)-3-((methylsulfonyl)methyl)phenyl)amino)-7-(cyclopropylamino)pyrazolo[1,5-a]pyrimidine-3-carbonitrile mono trifluoroacetic acid salt] | < 2.5 nM
6 | CS(=O)(=O)Cc1cc(Nc2cc(NC3CC3)n3ncc(C#N)c3n2)ccc1N1CC(CN)C1 [Example 43, 5-((4-(3-(Aminomethyl)azetidin-1-yl)-3-((methylsulfonyl)methyl)phenyl)amino)-7-(cyclopropylamino)pyrazolo[1,5-a]pyrimidine-3-carbonitrile] | < 2.5 nM
7 | C[S+]([O-])Cc1cc(Nc2cc(Nc3cccnc3)n3ncc(C#N)c3n2)ccc1C1CC1 (racemic) [Example 55, (±)-5-((4-Cyclopropyl-3-((methylsulfinyl)methyl)phenyl)amino)-7-(pyridin-3-ylamino)pyrazolo[1,5-a]pyrimidine-3-carbonitrile] | < 2.5 nM
8 | CN(CCN)c1ccc(Nc2cc(NC3CC3)n3ncc(C#N)c3n2)cc1CS(C)(=O)=O [Example 10, 5-((4-((2-Aminoethyl)(methyl)amino)-3-((methylsulfonyl)methyl)phenyl)amino)-7-(cyclopropylamino)pyrazolo[1,5-a]pyrimidine-3-carbonitrile mono trifluoroacetic acid salt] | < 2.5 nM
9 | CN(CCN)c1ccc(Nc2cc(NC3CC3)c3ncc(C#N)n3n2)cc1C[S+](C)[O-] (racemic) [Example 47, (±)-6-((4-((2-Aminoethyl)(methyl)amino)-3-((methylsulfinyl)methyl)phenyl)amino)-8-(cyclopropylamino)imidazo[1,2-b]pyridazine-3-carbonitrile mono trifluoroacetic acid salt] | 2.5 to 10 nM
10 | CN(CCN)c1ccc(Nc2cc(NC3CC3)c3ncc(C#N)n3n2)cc1CS(C)(=O)=O [Example 48, 6-((4-((2-aminoethyl)(methyl)amino)-3-((methylsulfonyl)methyl)phenyl)amino)-8-(cyclopropylamino)imidazo[1,2-b]pyridazine-3-carbonitrile mono trifluoroacetic acid salt] | 2.5 to 10 nM
11 | C/C(=C\CN)c1ccc(Nc2cc(NC3CC3)n3ncc(C#N)c3n2)cc1C[S+](C)[O-] (racemic) [Example 60, (±)-(E)-5-((4-(4-aminobut-2-en-2-yl)-3-((methylsulfinyl)methyl)phenyl)amino)-7-(cyclopropylamino)pyrazolo[1,5-a]pyrimidine-3-carbonitrile mono trifluoroacetic acid salt] | < 2.5 nM
12 | CN(C)c1ccc(Nc2cc(NC3CC3)n3ncc(C#N)c3n2)cc1CS(C)(=O)=O [Example 34, 7-(Cyclopropylamino)-5-((4-(dimethylamino)-3-((methylsulfonyl)methyl)phenyl)amino)pyrazolo[1,5-a]pyrimidine-3-carbonitrile] | < 2.5 nM

Second part, the compound after the results:

Row | Ki | SMILES
13 | < 2.5 nM | C[S+]([O-])Cc1cc(Nc2cc(NC3CC3)n3ncc(C#N)c3n2)ccc1N1CC[C@@H](N)C1 (stereo partly drawn) [Example 22, 5-((4-((R)-3-Aminopyrrolidin-1-yl)-3-(((R,S)-methylsulfinyl)methyl)phenyl)amino)-7-(cyclopropylamino)pyrazolo[1,5-a]pyrimidine-3-carbonitrile mono trifluoroacetic acid salt]
14 | < 2.5 nM | C[S+]([O-])Cc1cc(Nc2cc(NC3CC3)n3ncc(C#N)c3n2)ccc1N1CCC[C@H](N)C1 (stereo partly drawn) [Example 25, 5-((4-((S)-3-Aminopiperidin-1-yl)-3-(((R,S)-methylsulfinyl)methyl)phenyl)amino)-7-(cyclopropylamino)pyrazolo[1,5-a]pyrimidine-3-carbonitrile mono trifluoroacetic acid salt]
15 | 2.5 to 10 nM | CS(=O)(=O)Cc1cc(Nc2cc(NC3CC3)n3ncc(C#N)c3n2)ccc1N1CC(N)C1 [Example 41, 5-((4-(3-Aminoazetidin-1-yl)-3-((methylsulfonyl)methyl)phenyl)amino)-7-(cyclopropylamino)pyrazolo[1,5-a]pyrimidine-3-carbonitrile]
16 | 2.5 to 10 nM | CC(CCN)c1ccc(Nc2cc(NC3CC3)n3ncc(C#N)c3n2)cc1C[S+](C)[O-] (racemic) [Example 64, (±)-5-((4-(R,S)-4-Aminobutan-2-yl)-3-((methylsulfinyl)methyl)phenyl)amino)-7-(cyclopropylamino)pyrazolo[1,5-a]pyrimidine-3-carbonitrile mono trifluoroacetic acid salt]
17 | 2.5 to 10 nM | CC(N)c1ccc(Nc2cc(NC3CC3)n3ncc(C#N)c3n2)cc1C[S+](C)[O-] (racemic) [Example 58, (±)-5-((4-((R,S)-1-Aminoethyl)-3-((methylsulfinyl)methyl)phenyl)amino)-7-(cyclopropylamino)pyrazolo[1,5-a]pyrimidine-3-carbonitrile mono trifluoroacetic acid salt]
18 | < 2.5 nM | C[S+]([O-])Cc1cc(Nc2cc(NC3CC3)n3ncc(C#N)c3n2)ccc1C1CC1 (racemic) [Example 13, (±)-5-((4-Cyclopropyl-3-((methylsulfinyl)methyl)phenyl)amino)-7-(cyclopropylamino)pyrazolo[1,5-a]pyrimidine-3-carbonitrile]
19 | 2.5 to 10 nM | C[S+]([O-])Cc1cc(Nc2cc(NC3CC3)n3ncc(C#N)c3n2)ccc1C1CCCNC1 (racemic) [Example 61, (±)-7-(Cyclopropylamino)-5-((3-((methylsulfinyl)methyl)-4-((R,S)-piperidin-3-yl)phenyl)amino)pyrazolo[1,5-a]pyrimidine-3-carbonitrile mono trifluoroacetic acid salt]
20 | < 2.5 nM | C[S+]([O-])Cc1cc(Nc2cc(NC3CC3)n3ncc(C#N)c3n2)ccc1N1CC(N)C1 (racemic) [Example 40, (±)-5-((4-(3-Aminoazetidin-1-yl)-3-((methylsulfinyl)methyl)phenyl)amino)-7-(cyclopropylamino)pyrazolo[1,5-a]pyrimidine-3-carbonitrile]
21 | < 2.5 nM | CN(CC1CC1)c1ccc(Nc2cc(NC3CC3)n3ncc(C#N)c3n2)cc1C[S+](C)[O-] (racemic) [Example 16, (±)-7-(Cyclopropylamino)-5-((4-((cyclopropylmethyl)(methyl)amino)-3-((methylsulfinyl)methyl)phenyl)amino)pyrazolo[1,5-a]pyrimidine-3-carbonitrile]
22 | < 2.5 nM | C[S+]([O-])Cc1cc(Nc2cc(NC3CC3)n3ncc(C#N)c3n2)ccc1N1CCC[C@@H](N)C1 (stereo partly drawn) [Example 24, 5-((4-((R)-3-Aminopiperidin-1-yl)-3-(((R,S)-methylsulfinyl)methyl)phenyl)amino)-7-(cyclopropylamino)pyrazolo[1,5-a]pyrimidine-3-carbonitrile mono trifluoroacetic acid salt]
23 | 2.5 to 10 nM | C[S+]([O-])Cc1cc(Nc2cc(NC3CC3)n3ncc(C#N)c3n2)ccc1C1(CN)CC1 (racemic) [Example 38, (±)-5-((4-(1-(Aminomethyl)cyclopropyl)-3-((methylsulfinyl)methyl)phenyl)amino)-7-(cyclopropylamino)pyrazolo[1,5-a]pyrimidine-3-carbonitrile]
24 | < 2.5 nM | CS(=O)(=O)Cc1cc(Nc2cc(NC3CC3)n3ncc(C#N)c3n2)ccc1N1CC[C@H](N)C1 [Example 29, (S)-5-((4-(3-aminopyrrolidin-1-yl)-3-((methylsulfonyl)methyl)phenyl)amino)-7-(cyclopropylamino)pyrazolo[1,5-a]pyrimidine-3-carbonitrile mono trifluoroacetic acid salt]
